In patent publication US20240000772A1, “MICROSPHERE FORMULATIONS COMPRISING NALTREXONE AND METHODS FOR MAKING AND USING THE SAME” (Oakwood Laboratories, LLC, priority 2021, published 2024) one finds solubility and pKa data, which are given here for 2 compounds.

Values after ≈ are worked out from the molar mass of the structure shown. Structures can show the parent of a compound that is named as a salt. Where two headings read alike, the source gives them in different places.

Series [1] in a line: Solubility of naltrexone in solvents. The format is physicochemical. The text has this:
(§1) In one aspect, the naltrexone is a free base.
In another aspect, the naltrexone is an HCl salt.

A further series in a line: pKa of naltrexone. The format is physicochemical.
Description: as §1

`O=C1CC[C@@]2(O)[C@H]3Cc4ccc(O)c5c4[C@@]2(CCN3CC2CC2)[C@H]1O5` [naltrexone, Naltrexone]: the solubility (as a rule, the dissolved amount per volume that the medium holds) in series [1] (benzyl alcohol, organic solvent or mixture, naltrexone free base, in BA, read-out: benzyl alcohol (BA) solubility) is above 250 mg/mL; in series [1] (dichloromethane, organic solvent or mixture, naltrexone free base, in DCM, read-out: dichloromethane (DCM) solubility), 100 mg/mL (≈ 293 mM); in series [1] (ethyl acetate, organic solvent or mixture, naltrexone free base, in EA, read-out: ethyl acetate (EA) solubility), 26 mg/mL (≈ 76.2 mM). The pKa (as a rule, the negative logarithm of the acid dissociation constant) in “pKa of naltrexone” was 8.4.
For `O=C1CC[C@@]2(O)[C@H]3Cc4ccc(O)c5c4[C@@]2(CCN3CC2CC2)[C@H]1O5` [naltrexone HCl salt], the solubility in series [1] (naltrexone HCl salt, in water, read-out: water solubility) was around 100 mg/mL.
